Values of other authors, collected in patent publication US8362030B2, “Tricyclic derivatives as inhibitors of poly(ADP-ribose) polymerase (PARP)” (Istituto di Ricerche di Biologia Molecolare P. Angeletti …, priority 2008, dated 2013).

System: ischemia and reperfusion of the heart
Settings: rabbits

SMILES	reduction in infarct size (single injection 1 mg/kg)	reduction in infarct size in the heart (single injection 10 mg/kg, one minute before occlusion or before reperfusion)
Oc1cccc2c(O)nccc12 [1,5-dihydroxyisoquinoline]	38-48%	–
NC(=O)c1cccc(N)c1 [3-amino-benzamide]	–	32-42%
